What all share (type): cell-based, human
The subject of one test is Hs746T. In words: Cell proliferation, Cell-Titer Glo (CTG) assay, Hs746T. The following applies: inhibitor concentration of 10 nM or more, 72 hours. Here is the method: (§1) The 4 cell lines were seeded on a 96 well plate at the same amount (1×10^4 cells/well) and cultured for 24 hours (media: RPMI (Gibco, Invitrogen), culture conditions: 37° C., 5% CO2). The cultured cells were treated with representative c-Met inhibitor, crizotinib (Selleck chemical) and PHA665752((R,Z)-5-(2,6-dichlorobenzylsulfonyl)-3-((3,5-dimethyl-4-(2-(pyrrolidin-1-ylmethyl)pyrrolidine-1-carbonyl)-1H-pyrrol-2-yl)methylene)indolin-2-one), respectively. For comparison, human control IgG (chrompure human IgG (009-000-003, JACKSON IMMUNORESEARCH LABS INC.)) as a control and anti-c-Met antibody L3-1Y/IgG2 (Reference Example) were used respectively. Each of the inhibitors (or antibody) was treated at 10-fold serial diluted concentrations from 1000 nM to 0.01 nM. 72 hours after the treatment, the level of IL-8 in cell culture of each treatment group was assayed by Cytometric Bead Array (CBA) method using BD Cytometric Bead Array kit (see Example 1.1.2). In addition, in order to verify the anticancer efficacy of the c-Met inhibitors, the cell proliferation (%) was measured at 72 hours after c-Met inhibitor treatment through Cell-Titer Glo (CTG) assay.

In another test the test system is EBC-1. In words: Cell proliferation, Cell-Titer Glo (CTG) assay, EBC-1. Particulars: inhibitor concentration of 10 nM or more, 72 hours. Here is the method:
as §1

Another test relates to Lovo. In words: Cell proliferation, Cell-Titer Glo (CTG) assay, Lovo. The following applies: 0.01 to 1000 nM, 72 hours. Here is the method: as §1
The subject of the next test is HT29. In words: Cell proliferation, Cell-Titer Glo (CTG) assay, HT29. The following applies: 0.01 to 1000 nM, 72 hours. Here is the method:
as §1

Here are results for two molecules from patent publication US10393748B2, “Method for predicting efficacy of c-Met inhibitor” (Samsung Electronics Co., Ltd., priority 2014, dated 2019).

As to `Cc1[nH]c(/C=C2\C(=O)Nc3ccc(S(=O)(=O)Cc4c(Cl)cccc4Cl)cc32)c(C)c1C(=O)N1CCC[C@@H]1CN1CCCC1` [PHA665752, (R,Z)-5-(2,6-dichlorobenzylsulfonyl)-3-((3,5-dimethyl-4-(2-(pyrrolidin-1-ylmethyl)pyrrolidine-1-carbonyl)-1H-pyrrol-2-yl)methylene)indolin-2-one], the “cell proliferation (%)” value in the test with Hs746T is on record as “significantly inhibited”; in the test with EBC-1 it was “significantly inhibited”; in the test on Lovo it was “no significant decrease”; in the test with HT29, “no significant decrease”.
Regarding `C[C@@H](Oc1cc(-c2cnn(C3CCNCC3)c2)cnc1N)c1c(Cl)ccc(F)c1Cl` [crizotinib, 3-((R)-1-(2,6-dichloro-3-fluorophenyl)ethoxy)-5-(1-(piperidin-4-yl)-1H-pyrazol-4-yl)pyridin-2-amine], the “cell proliferation (%)” value in the test on Hs746T was “significantly inhibited”; in the test on EBC-1, “significantly inhibited”; in the test with Lovo, “no significant decrease”; in the test on HT29, “no significant decrease”.
